The text below walks through data of US20250002507A1, “7,8-DIHYDRO-5H-1,6-NAPHTHYRIDINE DERIVATIVES AS POSITIVE ALLOSTERIC MODULATORS OF THE MUSCARINIC ACETYLCHOLINE RECEPTOR M4 FOR TREATING NEUROLOGICAL AND PSYCHIATRIC DISORDERS” (Vanderbilt University, priority 2021, published 2025).

As a reminder, the Emax is the maximal effect, on the per cent scale that the assay sets. A word on the EC50: it is the concentration needed to bring the measured effect to its halfway point.

The target in this assay is T1, Human M4 (Homo sapiens, UniProt P08173).
T1 construct: expressed in transfected cells
T1 sequence (P08173 1-479): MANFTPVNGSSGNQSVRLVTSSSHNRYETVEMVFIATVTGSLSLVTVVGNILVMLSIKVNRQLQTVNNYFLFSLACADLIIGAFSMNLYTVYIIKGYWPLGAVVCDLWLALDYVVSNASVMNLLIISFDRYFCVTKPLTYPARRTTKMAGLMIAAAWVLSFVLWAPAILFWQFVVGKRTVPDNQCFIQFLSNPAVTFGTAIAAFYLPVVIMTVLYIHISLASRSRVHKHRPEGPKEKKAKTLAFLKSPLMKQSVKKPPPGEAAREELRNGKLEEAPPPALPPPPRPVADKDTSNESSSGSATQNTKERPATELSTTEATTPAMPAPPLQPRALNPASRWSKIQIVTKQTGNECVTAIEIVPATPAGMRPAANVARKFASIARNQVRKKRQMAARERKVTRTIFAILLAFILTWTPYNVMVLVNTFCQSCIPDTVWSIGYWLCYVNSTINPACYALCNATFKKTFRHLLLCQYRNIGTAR
In words: mAChR M4 cell-based functional assay (calcium flux, potentiation of EC20 acetylcholine response), hM4-Gqi5 CHO-K1 cells. Particulars: Table 3; for Emax at 30 µM: CHO-K1, Human M4, % ACh maximum at 30 μM, read-out: Emax (% ACh maximum at 30 μM); for EC50: potentiation of EC20 acetylcholine response, calcium flux, CHO-K1 cells, read-out: Human M4 EC50. The procedure, abridged: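 Positive allosteric modulation was scored as a concentration-dependent rise in the response to an EC20 dose of acetylcholine, added 144 s after the compound. Human M4-Gqi5 CHO-K1 cells carried Fluo-4 dye, and compounds ran as 11-point, 3-fold dilution series. EC50 and Emax came from four-parameter logistic fits of the FDSS fluorescence-ratio traces.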

With `Cc1c(N2CCc3ncc(-n4cccc4)cc3C2)nn2c(C(F)(F)F)nnc2c1C` [Compound 244, 6-(7,8-dimethyl-3-(trifluoromethyl)-[1,2,4]triazolo[4,3-b]pyridazin-6-yl)-3-(1H-pyrrol-1-yl)-5,6,7,8-tetrahydro-1,6-naphthyridine], the Emax at 30 µM was found to be 86% and the EC50 worked out at 546 nM.

In the case of `Cc1c(N2CCc3ncc(-c4ccc(F)nc4)cc3C2)nn2c(C(F)(F)F)nnc2c1C` [Compound 245, 6-(7,8-dimethyl-3-(trifluoromethyl)-[1,2,4]triazolo[4,3-b]pyridazin-6-yl)-3-(6-fluoropyridin-3-yl)-5,6,7,8-tetrahydro-1,6-naphthyridine], the Emax at 30 µM was determined as 80% and the EC50 was found to be 680 nM.

In the case of `Cc1c(N2Cc3cc(C(F)(F)F)cnc3C(C)C2)nn2cnnc2c1C` (stereo not drawn) [Compound 246, 6-(7,8-dimethyl-[1,2,4]triazolo[4,3-b]pyridazin-6-yl)-8-methyl-3-(trifluoromethyl)-5,6,7,8-tetrahydro-1,6-naphthyridine], the Emax at 30 µM stood at 90% and the EC50 turned out to be 408 nM.

Turning to `Cc1c(N2CCc3ncc(-n4cccn4)cc3C2)nn2c(C(F)(F)F)nnc2c1C` [Compound 247, 6-(7,8-dimethyl-3-(trifluoromethyl)-[1,2,4]triazolo[4,3-b]pyridazin-6-yl)-3-(1H-pyrazol-1-yl)-5,6,7,8-tetrahydro-1,6-naphthyridine], the Emax at 30 µM worked out at 74% and the EC50 turned out to be 308 nM.

`Cc1c(N2CCc3ncc(-n4ccc5ccccc54)cc3C2)nn2c(C(F)(F)F)nnc2c1C` [Compound 248, 6-(7,8-dimethyl-3-(trifluoromethyl)-[1,2,4]triazolo[4,3-b]pyridazin-6-yl)-3-(1H-indol-1-yl)-5,6,7,8-tetrahydro-1,6-naphthyridine]: the Emax at 30 µM was determined as 58% and the EC50 was 2310 nM.

Take `Cc1c(N2CCc3ncc(-c4ccc(N5CC[C@@H](F)C5)nc4)cc3C2)nn2c(C(F)(F)F)nnc2c1C` [Compound 249, (R)-6-(7,8-dimethyl-3-(trifluoromethyl)-[1,2,4]triazolo[4,3-b]pyridazin-6-yl)-3-(6-(3-fluoropyrrolidin-1-yl)pyridin-3-yl)-5,6,7,8-tetrahydro-1,6-naphthyridine]: the Emax at 30 µM was determined as 65% and the EC50 is 1210 nM.

Regarding `Cc1c(N2CCc3ncc(-c4ccc(N5CC[C@H](F)C5)nc4)cc3C2)nn2c(C(F)(F)F)nnc2c1C` [Compound 250, (S)-6-(7,8-dimethyl-3-(trifluoromethyl)-[1,2,4]triazolo[4,3-b]pyridazin-6-yl)-3-(6-(3-fluoropyrrolidin-1-yl)pyridin-3-yl)-5,6,7,8-tetrahydro-1,6-naphthyridine], the Emax at 30 µM turned out to be 60% and the EC50 is 1250 nM.

Take `Cc1c(N2CCc3ncc(-c4ccnn4C)cc3C2)nn2c(C(F)(F)F)nnc2c1C` [Compound 251, 6-(7,8-dimethyl-3-(trifluoromethyl)-[1,2,4]triazolo[4,3-b]pyridazin-6-yl)-3-(1-methyl-1H-pyrazol-5-yl)-5,6,7,8-tetrahydro-1,6-naphthyridine]: the maximum response (Emax) at 30 µM was found to be 83% and the EC50 was found to be 169 nM.

Turning to `Cc1c(N2CCc3ncc(-c4ccns4)cc3C2)nn2c(C(F)(F)F)nnc2c1C` [Compound 252, 5-(6-(7,8-dimethyl-3-(trifluoromethyl)-[1,2,4]triazolo[4,3-b]pyridazin-6-yl)-5,6,7,8-tetrahydro-1,6-naphthyridin-3-yl)isothiazole], the Emax at 30 µM is 80% and the EC50 was 140 nM.

On to `Cc1c(N2CCc3ncc(-c4cnn(C5CCCCC5)c4)cc3C2)nn2c(C(F)(F)F)nnc2c1C` [Compound 253, 3-(1-cyclohexyl-1H-pyrazol-4-yl)-6-(7,8-dimethyl-3-(trifluoromethyl)-[1,2,4]triazolo[4,3-b]pyridazin-6-yl)-5,6,7,8-tetrahydro-1,6-naphthyridine], for which the Emax at 30 µM is 42% and the EC50 was determined as 1690 nM.

`Cc1c(N2CCc3ncc(-c4ccn(C)n4)cc3C2)nn2c(C(F)(F)F)nnc2c1C` [Compound 254, 6-(7,8-dimethyl-3-(trifluoromethyl)-[1,2,4]triazolo[4,3-b]pyridazin-6-yl)-3-(1-methyl-1H-pyrazol-3-yl)-5,6,7,8-tetrahydro-1,6-naphthyridine]: the Emax at 30 µM stood at 76% and the EC50 is 494 nM.

Regarding `Cc1c(N2CCc3ncc(-c4ccc(C5CC5)nc4)cc3C2)nn2c(C(F)(F)F)nnc2c1C` [Compound 255, 3-(6-cyclopropylpyridin-3-yl)-6-(7,8-dimethyl-3-(trifluoromethyl)-[1,2,4]triazolo[4,3-b]pyridazin-6-yl)-5,6,7,8-tetrahydro-1,6-naphthyridine], the Emax at 30 µM was 62% and the EC50 worked out at 602 nM.

`Cc1ccc(-c2cnc3c(c2)CN(c2nn4c(C(F)(F)F)nnc4c(C)c2C)CC3)cn1` [Compound 256, 6-(7,8-dimethyl-3-(trifluoromethyl)-[1,2,4]triazolo[4,3-b]pyridazin-6-yl)-3-(6-methylpyridin-3-yl)-5,6,7,8-tetrahydro-1,6-naphthyridine]: the Emax at 30 µM is 78% and the EC50 amounted to 250 nM.

As for `Cc1c(N2CCc3ncc(-c4cccnc4)cc3C2)nn2c(C(F)(F)F)nnc2c1C` [Compound 257, 6-(7,8-dimethyl-3-(trifluoromethyl)-[1,2,4]triazolo[4,3-b]pyridazin-6-yl)-3-(pyridin-3-yl)-5,6,7,8-tetrahydro-1,6-naphthyridine], the Emax at 30 µM amounted to 78% and the EC50 was determined as 218 nM.

For `COc1ccc(-c2cnc3c(c2)CN(c2nn4c(C(F)(F)F)nnc4c(C)c2C)CC3)cn1` [Compound 258, 6-(7,8-dimethyl-3-(trifluoromethyl)-[1,2,4]triazolo[4,3-b]pyridazin-6-yl)-3-(6-methoxypyridin-3-yl)-5,6,7,8-tetrahydro-1,6-naphthyridine], the Emax at 30 µM was determined as 77% and the EC50 was determined as 578 nM.

For the compound `Cc1c(N2CCc3ncc(-c4ccc(C(F)(F)F)nc4)cc3C2)nn2c(C(F)(F)F)nnc2c1C` [Compound 259, 6-(7,8-dimethyl-3-(trifluoromethyl)-[1,2,4]triazolo[4,3-b]pyridazin-6-yl)-3-(6-(trifluoromethyl)pyridin-3-yl)-5,6,7,8-tetrahydro-1,6-naphthyridine], the Emax at 30 µM came to 55% and the EC50 was found to be 1450 nM.

For `Cc1c(N2CCc3ncc(OCC4COCCO4)cc3C2)nn2cnnc2c1C` (stereo not drawn) [Compound 260, 3-((1,4-dioxan-2-yl)methoxy)-6-(7,8-dimethyl-[1,2,4]triazolo[4,3-b]pyridazin-6-yl)-5,6,7,8-tetrahydro-1,6-naphthyridine], the Emax at 30 µM is 84% and the 50% effective concentration (EC50) was determined as 7670 nM.

As to `Cc1c(N2CCc3ncc(OCC4CC4)cc3C2)nn2cnnc2c1C` [Compound 261, 3-(cyclopropylmethoxy)-6-(7,8-dimethyl-[1,2,4]triazolo[4,3-b]pyridazin-6-yl)-5,6,7,8-tetrahydro-1,6-naphthyridine], the Emax at 30 µM turned out to be 90% and the EC50 worked out at 331 nM.

As to `Cc1c(N2CCc3ncc(OCC4COC4)cc3C2)nn2cnnc2c1C` [Compound 262, 6-(7,8-dimethyl-[1,2,4]triazolo[4,3-b]pyridazin-6-yl)-3-(oxetan-3-ylmethoxy)-5,6,7,8-tetrahydro-1,6-naphthyridine], the Emax at 30 µM worked out at 82% and the EC50 stood at 1580 nM.

On to `Cc1c(N2CCc3ncc(OCC4CC(F)(F)C4)cc3C2)nn2cnnc2c1C` [Compound 263, 3-((3,3-difluorocyclobutyl)methoxy)-6-(7,8-dimethyl-[1,2,4]triazolo[4,3-b]pyridazin-6-yl)-5,6,7,8-tetrahydro-1,6-naphthyridine], for which the Emax at 30 µM was found to be 79% and the EC50 was 502 nM.

For `Cc1c(N2CCc3ncc(OCC4CCOC4)cc3C2)nn2cnnc2c1C` (stereo not drawn) [Compound 264, 6-(7,8-dimethyl-[1,2,4]triazolo[4,3-b]pyridazin-6-yl)-3-((tetrahydrofuran-3-yl)methoxy)-5,6,7,8-tetrahydro-1,6-naphthyridine], the Emax at 30 µM amounted to 82% and the half-maximal effective concentration (EC50) stood at 1220 nM.

`Cc1c(N2CCc3ncc(OCc4ccccc4)cc3C2)nn2cnnc2c1C` [Compound 265, 3-(benzyloxy)-6-(7,8-dimethyl-[1,2,4]triazolo[4,3-b]pyridazin-6-yl)-5,6,7,8-tetrahydro-1,6-naphthyridine]: the Emax at 30 µM was 74% and the EC50 was found to be 724 nM.

`Cc1c(N2CCc3ncc(OCC4CC4(F)F)cc3C2)nn2cnnc2c1C` (stereo not drawn) [Compound 266, 3-((2,2-difluorocyclopropyl)methoxy)-6-(7,8-dimethyl-[1,2,4]triazolo[4,3-b]pyridazin-6-yl)-5,6,7,8-tetrahydro-1,6-naphthyridine]: the Emax at 30 µM is 93% and the EC50 is 346 nM.

For `Cc1c(N2CCc3ncc(N4CCCn5nccc54)cc3C2)nn2c(C(F)(F)F)nnc2c1C` [Compound 267, 3-(6,7-dihydropyrazolo[1,5-a]pyrimidin-4(5H)-yl)-6-(7,8-dimethyl-3-(trifluoromethyl)-[1,2,4]triazolo[4,3-b]pyridazin-6-yl)-5,6,7,8-tetrahydro-1,6-naphthyridine], the Emax at 30 µM was 100% and the EC50 is 37 nM.
